Inhibition and IC50 data for 14 compounds are collected here from ChEMBL document CHEMBL1148863, “Discovering new inhibitors of bacterial glucosamine-6P synthase (GlmS) by docking simulations” (Bioorg Med Chem Lett, 2007).

For orientation: inhibition means the drop in the measured response relative to a control, in per cent. Lower therefore signals a weak effect. What is called IC50 is the concentration needed to halve the response being measured. The low end stands for higher potency, the high end for lower potency.

SMILES strings stand for the structures.

A short description of assay [1]: Inhibition of bacterial glucosamine-6-phosphate synthase at 100 uM by colorimetric morgan-elson assay.
Assay [2] can be described thus: Inhibition of bacterial glucosamine-6-phosphate synthase by colorimetric morgan-elson assay.

`O=C(O)Cc1csc(NC(=O)CSc2ccccn2)n1`: the inhibition in assay [1] was 0%.
`Nc1nc[nH]n1` [AMITROLE]: the IC50 in assay [2] is 100 µM.
In turn, `O=C(O)C[C@@H](NS(=O)(=O)c1ccccc1)C(=O)O` gave an inhibition in assay [1] of 0%.
With `COc1ccc(-c2sc(C(=O)O)cc2CC(=O)O)cc1`, the inhibition in assay [1] worked out at 0%.
As to `O=S(=O)(NC(NS(=O)(=O)c1ccccc1)c1ccc(Br)cc1)c1ccccc1`, the inhibition in assay [1] came out at 0%.
`O=C(O)CC(Sc1ccc(C(=O)O)cc1)C(=O)O` (stereo not drawn): in assay [1], the inhibition came to 0%.
The compound `O=C(C1=C(O)C(=O)N(Cc2cccnc2)C1c1cccc(Oc2ccccc2)c1)c1ccco1` (stereo not drawn) returned an inhibition in assay [1] of 20%.
`COc1cc2ccnc3c2c(c1OC)NC=C3` [AAPTAMINE] showed an IC50 in assay [2] of 120 µM.
For `COc1ccccc1C1Oc2ccccc2C2=C1C(c1ccccc1OC)n1nc(C)nc1N2` (stereo not drawn), the inhibition in assay [1] amounted to 70%. The compound further registered an IC50 in assay [2] of 70 µM.
In assay [1], `COC(=O)c1sc(N2C(=O)C(O)=C(C(=O)c3ccccc3)C2c2ccc(C)cc2)nc1C` (stereo not drawn) gave an inhibition of 0%.
In the case of `N[C@@H](CO)[C@@H](O)[C@H](O)[C@H](O)COP(=O)(O)O`, in assay [1], the inhibition was 85%. The same compound registered an IC50 in assay [2] of 56 µM.
In assay [1], `CCOC(=O)c1sc(N2C(=O)C(O)=C(C(=O)c3ccc(F)cc3)C2c2cccc(Br)c2)nc1C` (stereo not drawn) displayed an inhibition of 70%. In assay [2], this compound gave an IC50 of 70 µM.
`COC(=O)c1sc(N2C(=O)C(O)=C(C(=O)c3ccc(Cl)cc3)C2c2ccccc2F)nc1C` (stereo not drawn) showed an inhibition in assay [1] of 0%.
Take `CCOC(=O)c1sc(N2C(=O)C(O)=C(C(=O)c3ccc(F)cc3)C2c2ccc(OC)cc2)nc1C` (stereo not drawn): the inhibition in assay [1] is 70%. The midpoint of inhibition in assay [2], the IC50, lay at 70 µM.
